These results are taken from ChEMBL document CHEMBL1667781, “Biological evaluation of KRIBB3 analogs as a microtubule polymerization inhibitor” (Bioorg Med Chem Lett, 2011).

The nature of this assay: Inhibition of tubulin polymerization for 70 mins by microtubule polymerization assay. Also noted: concentration or dose not given beside the values.
On to `COc1ccc(-c2cnoc2-c2ccc(O)c(O)c2)cc1`, for which the inhibition was 65%.

With `CCc1cc(-c2oncc2-c2ccc(O)cc2)c(O)cc1OC`, the inhibition was found to be 115%.

Consider `COc1ccc(-c2cnoc2-c2ccc(O)cc2)cc1`, for which the inhibition was 80%.

For `CCc1cc(-c2oncc2-c2ccc(OC)cc2)c(O)cc1OC`, the inhibition stood at 52%.

Regarding `CCc1cc(-c2oncc2-c2ccc(OC)cc2)c(OCc2ccccc2)cc1OC`, the inhibition stood at 79%.

As for `CCc1cc(-c2oncc2-c2ccc(O)cc2)c(O)cc1O`, the inhibition was 134%.

Regarding `COc1ccc(-c2cnoc2-c2cc(C)c(O)c(C)c2)cc1`, the inhibition came to 76%.

With `COc1ccc(-c2cnoc2-c2ccc(OCc3ccccc3)c(OCc3ccccc3)c2)cc1`, the inhibition worked out at 80%.

As to `COc1ccc(-c2cnoc2-c2cc(C)c(OCc3ccccc3)c(C)c2)cc1`, the inhibition came out at 126%.

Consider `COc1ccc(-c2cnoc2-c2ccc(OC)c(OCc3ccccc3)c2)cc1`, for which the inhibition came to 128%.

As for `COc1ccc(-c2cnoc2-c2ccc(OC)c(O)c2)cc1`, the inhibition is 50%.
